Molecular target: T1, Glutamate receptor ionotropic, kainate 4 (Homo sapiens, UniProt Q16099)
T1 sequence (Q16099 whole entry): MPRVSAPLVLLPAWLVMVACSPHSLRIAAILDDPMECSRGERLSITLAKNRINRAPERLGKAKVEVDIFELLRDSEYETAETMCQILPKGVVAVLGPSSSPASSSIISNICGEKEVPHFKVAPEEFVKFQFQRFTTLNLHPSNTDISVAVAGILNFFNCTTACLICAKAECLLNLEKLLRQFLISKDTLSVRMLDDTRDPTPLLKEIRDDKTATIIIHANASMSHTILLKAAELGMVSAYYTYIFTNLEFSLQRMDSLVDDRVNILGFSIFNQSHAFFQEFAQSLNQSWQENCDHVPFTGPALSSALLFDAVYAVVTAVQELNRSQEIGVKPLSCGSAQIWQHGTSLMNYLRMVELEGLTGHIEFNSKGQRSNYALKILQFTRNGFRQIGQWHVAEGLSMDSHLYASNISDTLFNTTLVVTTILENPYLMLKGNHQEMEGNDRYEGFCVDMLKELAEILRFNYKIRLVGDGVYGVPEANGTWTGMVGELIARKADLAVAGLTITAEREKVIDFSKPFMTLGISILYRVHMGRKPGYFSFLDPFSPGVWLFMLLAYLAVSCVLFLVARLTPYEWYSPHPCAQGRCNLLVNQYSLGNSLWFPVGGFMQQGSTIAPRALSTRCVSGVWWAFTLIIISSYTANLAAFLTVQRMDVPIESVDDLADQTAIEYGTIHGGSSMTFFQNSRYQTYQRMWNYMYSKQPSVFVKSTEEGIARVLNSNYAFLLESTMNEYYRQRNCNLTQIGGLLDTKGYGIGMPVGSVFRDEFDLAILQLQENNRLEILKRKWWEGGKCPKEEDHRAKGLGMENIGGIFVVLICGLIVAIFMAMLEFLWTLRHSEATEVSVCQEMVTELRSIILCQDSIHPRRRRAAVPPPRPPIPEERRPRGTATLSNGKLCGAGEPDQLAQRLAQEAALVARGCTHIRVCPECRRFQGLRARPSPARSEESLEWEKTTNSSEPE

SMILES	Ki [nM]
C/C(=C\C=C\[C@@H](C)C(=O)O)[C@H]1CN[C@H](C(=O)O)[C@H]1CC(=O)O	10.5
N[C@@H](Cn1oc(=O)[nH]c1=O)C(=O)O [2-amino-3-(3,5-dioxo[1,2,4]oxadiazolidin-2-yl)propionic acid]	6.43
N#Cc1cc2nc(O)c(O)nc2cc1[N+](=O)[O-] [7-Cyano-3-hydroxy-6-nitro-quinoxalin-2-ol anion]	> 10000
Cc1onc(O)c1CC(N)C(=O)O (stereo not drawn) [(RS)-2-amino-3-(3-hydroxy-5-methylisoxazol-4-yl)-propionicacid]	1970
C=C(C)[C@H]1CN[C@H](C(=O)O)[C@H]1CC(=O)O [Digensaeure]	2.29
CN[C@H](CC(=O)O)C(=O)O [NMDA]	> 10000
O=C1N=c2cc([N+](=O)[O-])c([N+](=O)[O-])cc2=NC1=O [NSC_3140]	8490
CC(C)[C@H]1CN[C@H](C(=O)O)[C@H]1CC(=O)O [dihydrokainic acid]	3840
NC(CCC(=O)O)C(=O)O (centres undefined) [glutamic acid dianion]	18.3

— BindingDB's records for doi:10.1046/j.1471-4159.1994.62010001.x (Allelix Biopharmaceuticals, 1994)
